How the values were obtained:
Type in all cases: biochemical
[1] = target: T1, HDAC1 enzyme (Homo sapiens, UniProt Q13547); assay: HDAC1 enzyme inhibitory assay (HDAC-Glo I/II Assay kit); details: wells without enzyme = 100% inhibition; for inhibition at 1 µM: read-out: HDAC1 inhibitory rate (%) (1 μM)
T1 construct: transducing full length HDAC1 and HDAC6 genes into Sf-9 insect cells; GST; purchased SignalChem; host or cells: Sf-9 insect cells
Outline: (§1)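 Steps: compound in pH 7.5 Tris buffer plus enzyme (full-length HDAC1 or HDAC6 from Sf-9, GST-purified), 60 min at room temperature; add HDAC-Glo substrate-developer; react 20 min; read luminescence. Relative activity is calculated against enzyme-free wells taken as full inhibition.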

[2] = target: T2, HDAC6 enzyme (Homo sapiens, UniProt Q9UBN7); assay: HDAC6 enzyme inhibitory assay (HDAC-Glo I/II Assay kit); details: wells without enzyme = 100% inhibition; for inhibition at 1 µM: read-out: HDAC6 inhibitory rate (%) (1 μM)
T2 construct: transducing full length HDAC1 and HDAC6 genes into Sf-9 insect cells; GST; purchased SignalChem; host or cells: Sf-9 insect cells
T2 sequence (Q9UBN7 1-1215): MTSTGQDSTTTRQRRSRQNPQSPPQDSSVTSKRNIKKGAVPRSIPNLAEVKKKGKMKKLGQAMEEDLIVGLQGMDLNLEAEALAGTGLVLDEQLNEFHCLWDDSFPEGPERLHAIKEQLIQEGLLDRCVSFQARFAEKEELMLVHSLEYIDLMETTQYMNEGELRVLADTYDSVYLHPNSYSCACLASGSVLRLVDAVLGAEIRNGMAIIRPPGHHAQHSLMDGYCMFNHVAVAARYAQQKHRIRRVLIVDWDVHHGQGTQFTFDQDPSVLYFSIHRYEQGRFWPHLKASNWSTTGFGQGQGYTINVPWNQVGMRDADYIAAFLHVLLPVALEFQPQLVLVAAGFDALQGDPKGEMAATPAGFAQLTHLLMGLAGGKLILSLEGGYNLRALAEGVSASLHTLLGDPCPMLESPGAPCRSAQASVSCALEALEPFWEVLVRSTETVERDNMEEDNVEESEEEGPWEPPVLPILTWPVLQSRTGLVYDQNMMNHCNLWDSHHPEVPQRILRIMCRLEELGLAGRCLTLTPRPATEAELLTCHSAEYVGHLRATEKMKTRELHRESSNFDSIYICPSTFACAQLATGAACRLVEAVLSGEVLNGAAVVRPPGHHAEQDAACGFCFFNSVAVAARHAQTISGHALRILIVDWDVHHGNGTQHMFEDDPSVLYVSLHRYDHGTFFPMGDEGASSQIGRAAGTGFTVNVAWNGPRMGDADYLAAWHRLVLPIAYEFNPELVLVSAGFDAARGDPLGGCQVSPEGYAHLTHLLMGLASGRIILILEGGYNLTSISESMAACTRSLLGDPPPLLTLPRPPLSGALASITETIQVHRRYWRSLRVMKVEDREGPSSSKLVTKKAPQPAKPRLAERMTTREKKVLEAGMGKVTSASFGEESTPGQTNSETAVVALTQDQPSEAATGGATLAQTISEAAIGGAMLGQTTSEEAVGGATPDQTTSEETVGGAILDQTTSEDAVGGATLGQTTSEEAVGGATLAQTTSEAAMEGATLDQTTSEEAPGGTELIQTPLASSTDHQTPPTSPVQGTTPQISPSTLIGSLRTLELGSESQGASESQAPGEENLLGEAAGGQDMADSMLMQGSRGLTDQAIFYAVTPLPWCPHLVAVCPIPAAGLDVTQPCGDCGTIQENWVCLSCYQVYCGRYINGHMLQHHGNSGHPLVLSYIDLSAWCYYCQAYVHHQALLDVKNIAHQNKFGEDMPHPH
Outline: as §1

[3] = target: T3, HDAC9 enzyme (Homo sapiens, UniProt Q9UKV0); assay: HDAC9 enzyme inhibitory assay (HDAC-Glo class IIa); details: wells without enzyme = 100% inhibition; for inhibition at 1 µM: read-out: HDAC9 inhibitory rate (%) (1 μM)
T3 construct: transducing full length HDAC9 gene into Sf-9 insect cells; made in house; host or cells: Sf-9 insect cells
T3 sequence (Q9UKV0 whole entry, species assumed): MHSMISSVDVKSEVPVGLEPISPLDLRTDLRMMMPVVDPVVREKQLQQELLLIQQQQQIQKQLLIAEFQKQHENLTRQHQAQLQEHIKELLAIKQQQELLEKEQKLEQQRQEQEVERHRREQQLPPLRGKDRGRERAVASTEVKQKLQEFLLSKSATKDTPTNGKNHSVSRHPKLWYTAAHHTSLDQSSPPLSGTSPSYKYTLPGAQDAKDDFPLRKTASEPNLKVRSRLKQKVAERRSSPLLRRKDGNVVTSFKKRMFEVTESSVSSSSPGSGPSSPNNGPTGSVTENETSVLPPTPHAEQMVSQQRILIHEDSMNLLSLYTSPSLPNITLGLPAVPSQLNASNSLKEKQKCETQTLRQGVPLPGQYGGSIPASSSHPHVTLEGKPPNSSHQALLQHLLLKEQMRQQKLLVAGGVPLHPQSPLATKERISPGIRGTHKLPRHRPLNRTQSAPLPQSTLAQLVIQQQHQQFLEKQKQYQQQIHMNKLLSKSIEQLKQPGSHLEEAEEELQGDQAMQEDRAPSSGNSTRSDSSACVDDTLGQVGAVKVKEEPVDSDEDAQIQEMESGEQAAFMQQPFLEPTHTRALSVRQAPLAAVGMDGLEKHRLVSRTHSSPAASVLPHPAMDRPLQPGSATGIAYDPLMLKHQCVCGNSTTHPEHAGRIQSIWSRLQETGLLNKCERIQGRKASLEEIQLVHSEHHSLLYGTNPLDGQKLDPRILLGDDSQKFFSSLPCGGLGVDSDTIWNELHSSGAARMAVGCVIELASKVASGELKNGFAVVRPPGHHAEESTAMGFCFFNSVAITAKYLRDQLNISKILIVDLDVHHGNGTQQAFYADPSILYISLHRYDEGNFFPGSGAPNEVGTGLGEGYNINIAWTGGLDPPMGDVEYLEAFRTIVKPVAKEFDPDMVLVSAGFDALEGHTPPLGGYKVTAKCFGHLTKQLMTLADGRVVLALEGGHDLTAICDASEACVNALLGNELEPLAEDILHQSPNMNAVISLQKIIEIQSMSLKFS
Outline: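 Luminescent HDAC-Glo class IIa readout after a 20 min room-temperature reaction; relative inhibition referenced to enzyme-free wells as 100%. Test compound first preincubated 60 min with Sf-9-expressed, Ni-NTA-purified full-length HDAC9 in pH 7.5 Tris buffer containing 135 mM NaCl, 0.6 mM glutathione and 0.01% Tween-20.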

T1 sequence (Q13547 whole entry): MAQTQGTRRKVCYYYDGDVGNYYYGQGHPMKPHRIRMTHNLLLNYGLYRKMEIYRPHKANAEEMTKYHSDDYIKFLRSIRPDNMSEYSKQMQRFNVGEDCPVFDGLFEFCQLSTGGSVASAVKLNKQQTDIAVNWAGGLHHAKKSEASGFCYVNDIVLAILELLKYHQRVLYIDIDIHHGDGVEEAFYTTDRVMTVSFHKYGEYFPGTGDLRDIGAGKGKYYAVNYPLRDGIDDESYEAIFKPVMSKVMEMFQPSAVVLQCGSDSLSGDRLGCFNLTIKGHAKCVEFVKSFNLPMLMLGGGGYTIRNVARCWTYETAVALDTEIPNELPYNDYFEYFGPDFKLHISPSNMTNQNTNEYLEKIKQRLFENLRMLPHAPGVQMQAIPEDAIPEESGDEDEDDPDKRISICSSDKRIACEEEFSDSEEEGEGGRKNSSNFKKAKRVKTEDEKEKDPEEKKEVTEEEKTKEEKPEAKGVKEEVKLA

Row | Compound | inhibition at 1 µM [1] | inhibition at 1 µM [2] | inhibition at 1 µM [3] | HDAC1 inhibitory rate (%) (1 μM) [1] | HDAC6 inhibitory rate (%) (1 μM) [2] | HDAC9 inhibitory rate (%) (1 μM) [3]
1 | Cc1ccccc1C(=O)NCC1CCCCN1C(=O)Nc1ccc(-c2noc(C(F)(F)F)n2)cc1 (stereo not drawn) [Example 10, 2-(((2-methylbenzoyl)amino)methyl)-N-(4-(5-(trifluoromethyl)-1,2,4-oxadiazol-3-yl)phenyl)piperidine-1-carboxamide] | 4% | 5% | 84% |  |  | 
2 | CC(=O)N1CCC(C(=O)NCC2CCCCN2C(=O)Nc2ccc(-c3noc(C(F)(F)F)n3)cc2)CC1 (stereo not drawn) [Example 53, 2-((((1-acettylpiperidin-4-yl)carbonyl)amino)methyl)-N-(4-(5-(trifluoromethyl)-1,2,4-oxadiazol-3-yl)phenyl)piperidine-1-carboxamide] |  |  |  | 32% | 7% | 94%
3 | N#Cc1cccc(C(=O)NCC2CCCCN2C(=O)Nc2ccc(-c3noc(C(F)(F)F)n3)cc2)c1 (stereo not drawn) [Example 20, 2-(((3-cyanobenzoyl)amino)methyl)-N-(4-(5-(trifluoromethyl)-1,2,4-oxadiazol-3-yl)phenyl)piperidine-1-carboxamide] | 32% | 4% | 95% |  |  | 
4 | COc1cccc(C(=O)NCC2CCCCN2C(=O)Nc2ccc(-c3noc(C(F)(F)F)n3)cc2)c1 (stereo not drawn) [Example 24, 2-(((3-methoxybenzoyl)amino)methyl)-N-(4-(5-(trifluoromethyl)-1,2,4-oxadiazol-3-yl)phenyl)piperidine-1-carboxamide] | 24% | 3% | 88% |  |  | 
5 | O=C(NCC1CCCCN1C(=O)Nc1ccc(-c2noc(C(F)(F)F)n2)cc1)Nc1ccccc1 (stereo not drawn) [Example 54, 2-(((phenylcarbamoyl)amino)methyl)-N-(4-(5-(trifluoromethyl)-1,2,4-oxadiazol-3-yl)phenyl)piperidine-1-carboxamide] | 17% | 6% | 89% |  |  | 

Reference: patent US10406146B2, “Heterocyclic compound” (TAKEDA PHARMACEUTICAL COMPANY LIMITED, priority 2015, dated 2019)
